System: murine fibroblasts (NIH3T3) over-expressing human IGF-1 receptor
Experiment: Inhibition of IGF-stimulated cell proliferation (BrdU incorporation), Test (c)
Assay type: cell-based
Settings: NIH3T3/IGFR cells, IGF-1 20 ng/ml
Procedure: The construction of murine fibroblasts (NIH3T3) over-expressing human IGF-1 receptor has been described by Lammers et al (EMBO J, 8, 1369-1375, 1989). These cells show a proliferative response to IGF-I which can be measured by BrdU incorporation into newly synthesised DNA. Compound potency was determined as causing inhibition of the IGF-stimulated proliferation in the following assay:
Compounds are initially dissolved in DMSO to 10 mM, followed by dilutions in DMEM+1% FCS+glutamine to give a range from […] in 1-0.00045% DMSO final concentration in assay well.
Exponentially growing NIH3T3/IGFR cells were harvested and seeded in complete growth medium into a flat-bottomed 96 well tissue culture grade plate (Costar 3525) at 1.2×10^4 cells per well in a volume of 100 μl.
Growth medium was carefully removed from each well using a multi-channel pipette. Wells were carefully rinsed three times with 200 μl with HBSS. 100 μl of starvation medium was added to each well and the plate was re-incubated for 24 hours.
50 μl of a 4× concentrate of test compound was added to appropriate wells. Cells were incubated for 30 minutes with compound alone before the addition of IGF. […]
The incorporation of BrdU in the cells (after a 4 h incorporation period) was assessed using the BrdU Cell Proliferation Elisa according to the manufacturer's protocol.

Row | SMILES | IC50
1 | Cc1cc(Nc2ccccn2)nc(N2CCC[C@H]2c2cc(-c3ccccn3)no2)n1 [Example 1, S-6-Methyl-2-{2-[3-(pyrid-2-yl)isoxazol-5-yl]pyrrolidin-1-yl}-4-(pyrid-2-ylamino)pyrimidine] | 310 nM
2 | Cc1ccc(Nc2cc(C)nc(N3CCC[C@H]3c3cc(-c4ccccn4)no3)n2)nc1 [Example 13, S-6-Methyl-2-{2-[3-(pyrid-2-yl)isoxazol-5-yl]pyrrolidin-1-yl}-4-(5-methylpyrid-2-ylamino)pyrimidine] | 130 nM

Source: patent publication US20080171742A1, “4-(Pyrid-2-Yl) Amino Substituted Pyrimidine as Protein Kinase Inhibitors” (AsraZeneca, priority 2005, published 2008)
